The values that follow are results of earlier work, collected in patent US20200357489A1, “DEEP LEARNING-BASED QUICK AND PRECISE HIGH-THROUGHPUT DRUG SCREENING SYSTEM” (Shanghai Tongji Hospital, priority 2018, published 2020).

Where two headings read alike, the source gives them in different places.

Take `COc1cc(/C=C/C(=O)CC(=O)/C=C/c2ccc(O)c(OC)c2)ccc1O` [Cur, curcumin]: the efficacy classification entry is “Low effcacy” in the data set with HepG2 cells (5 μg/ml Cur), “Moderate” in the data set on HepG2 cells (10 μg/ml Cur) and “High efficacy” in the data set on HepG2 cells (20 μg/ml Cur).

With `COc1cc([C@@H]2c3cc4c(cc3[C@@H](O[C@@H]3O[C@@H]5CO[C@@H](C)O[C@H]5[C@H](O)[C@H]3O)[C@H]3COC(=O)[C@H]23)OCO4)cc(OC)c1O` [VP16, etoposide], the efficacy classification entry with A549 cells (50 μg/ml VP16) was “Low effcacy”; in the data set on A549 cells (100 μg/ml VP16) it was “Moderate”; with A549 cells (200 μg/ml VP16) it was “High efficacy”.
